# From patent US8362000B2, “Azetidinyl diamides as monoacylglycerol lipase inhibitors” (Janssen Pharmaceutica NV, priority 2009, dated 2013)
# Target: T1, mutant MGL (Homo sapiens, UniProt Q99685, L169S/L176S)
# T1 sequence (Q99685 1-303 L169S/L176S): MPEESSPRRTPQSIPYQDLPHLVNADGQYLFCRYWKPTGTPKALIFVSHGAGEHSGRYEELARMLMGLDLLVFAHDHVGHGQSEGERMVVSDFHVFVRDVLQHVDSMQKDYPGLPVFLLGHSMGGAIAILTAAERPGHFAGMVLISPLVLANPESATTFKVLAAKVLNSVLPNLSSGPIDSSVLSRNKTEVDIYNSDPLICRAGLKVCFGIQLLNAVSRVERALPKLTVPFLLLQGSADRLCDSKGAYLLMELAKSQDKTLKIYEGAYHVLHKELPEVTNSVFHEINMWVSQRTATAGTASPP
# Experiment: MGL ThermoFluor assay - mutant
# Assay type: binding
# Conditions: ThermoFluor concentration-response, read-out: MGL mutant ThermoFluor Kd
row,Kd,Structure (SMILES)
1,9440 nM,O=C(c1cc(F)cc(Br)c1)N1CC(N2CCN(C(=O)c3cscn3)CC2)C1 [Cpd 926]
2,50 nM,"O=C(c1ccccc1)N1CCN(C2CN(C(=O)c3ccc(O[C@H]4CCN(C(=O)N5CCCC5)C4)c(I)c3)C2)CC1 [Cpd 450, 1-{1-[(3-Iodo-4-{[(3S)-1-(pyrrolidin-1-ylcarbonyl)pyrrolidin-3-yl]oxy}phenyl)carbonyl]azetidin-3-yl}-4-(phenylcarbonyl)piperazine]"
3,10000 nM,"O=C(c1ccccc1)N1CCN(C2CN(C(=O)c3cnc(NCc4ccccc4)s3)C2)CC1 [Cpd 50, N-Benzyl-5-({3-[4-(phenylcarbonyl)piperazin-1-yl]azetidin-1-yl}carbonyl)-1,3-thiazol-2-amine]"
4,2 nM,"O=C(c1ccc(SCc2cccc(Cl)c2Cl)cc1)N1CC(N2CCN(C(=O)c3nccs3)CC2)C1 [Cpd 413, 1-[1-({4-[(2,3-Dichlorobenzyl)sulfanyl]phenyl}carbonyl)azetidin-3-yl]-4-(1,3-thiazol-2-ylcarbonyl)piperazine]"
5,249 nM,"O=C(c1ccccc1)N1CCN(C2CN(C(=O)c3ccc4c(ccn4-c4ncc(F)cn4)c3)C2)CC1 [Cpd 598, 1-(5-Fluoropyrimidin-2-yl)-5-({3-[4-(phenylcarbonyl)piperazin-1-yl]azetidin-1-yl}carbonyl)-1H-indole]"
6,49500 nM,"O=C(c1ccccc1)N1CCN(C2CN(C(=O)c3cncc(-c4ccccc4)c3)C2)CC1 [Cpd 80, 1-(Phenylcarbonyl)-4-{1-[(5-phenylpyridin-3-yl)carbonyl]azetidin-3-yl}piperazine]"
7,33.3 nM,"CC(C)(C)OC(=O)N1CCC(c2ccc(C(=O)N3CC(N4CCN(C(=O)c5ccccc5)CC4)C3)cc2)CC1 [Cpd 109, tert-Butyl 4-[4-({3-[4-(phenylcarbonyl)piperazin-1-yl]azetidin-1-yl}carbonyl)phenyl]piperidine-1-carboxylate]"
8,250 nM,"Cn1c2ccccc2c2cc(C(=O)N3CC(N4CCN(C(=O)c5ccccc5)CC4)C3)ccc21 [Cpd 51, 9-Methyl-3-({3-[4-(phenylcarbonyl)piperazin-1-yl]azetidin-1-yl}carbonyl)-9H-carbazole]"
9,> 31200 nM,"O=C(c1ccccc1)N1CCN(C2CN(C(=O)c3cccn(Cc4cccc(Cl)c4)c3=O)C2)CC1 [Cpd 562, 1-(3-Chlorobenzyl)-3-({3-[4-(phenylcarbonyl)piperazin-1-yl]azetidin-1-yl}carbonyl)pyridin-2(1H)-one]"
10,114 nM,O=C(c1ccccc1)N1CCN(C2CN(C(=O)c3ccc(CNc4ccc(F)c(F)c4F)cc3)C2)CC1 [Cpd 557]
11,4260 nM,"O=C(c1cnon1)N1CC(N2CCN(C(=O)c3cc4cc(C(F)(F)F)ccc4s3)CC2)C1 [Cpd 921, 1-[1-(1,2,5-Oxadiazol-3-ylcarbonyl)azetidin-3-yl]-4-{[5-(trifluoromethyl)-1-benzothiophen-2-yl]carbonyl}piperazine]"
12,2000 nM,O=C(C#Cc1ccccc1)N1CC(N2CCN(C(=O)c3nccs3)CC2)C1 [Cpd 477]
13,4070 nM,"O=C(c1ccc(-c2ccccc2)cc1)N1CCN(C2CN(C(=O)c3ncccn3)C2)CC1 [Cpd 1400, 2-({3-[4-(Biphenyl-4-ylcarbonyl)piperazin-1-yl]azetidin-1-yl}carbonyl)pyrimidine]"
14,6670 nM,"CS(=O)(=O)c1ccc(C(=O)N2CC(N3CCN(C(=O)c4ccccc4)CC3)C2)cc1 [Cpd 472, 1-(1-{[4-(Methylsulfonyl)phenyl]carbonyl}azetidin-3-yl)-4-(phenylcarbonyl)piperazine]"
15,2000 nM,CC1CN(C2CN(C(=O)c3cccc(-c4ccccc4)c3)C2)CCN1C(=O)c1nccs1 (stereo not shown) [Cpd 116]
16,216 nM,O=C(c1ccc(OCc2cccc(Cl)c2)cc1)N1CC(N2CCN(C(=O)C(F)(F)F)CC2)C1 [Cpd 958]
17,6250 nM,"O=C(/C=C/c1ccccc1Cl)N1CC(N2CCN(C(=O)c3ccccc3)CC2)C1 [Cpd 103, 1-{1-[(2E)-3-(2-Chlorophenyl)prop-2-enoyl]azetidin-3-yl}-4-(phenylcarbonyl)piperazine]"
18,5440 nM,"O=C(c1cscn1)N1CCN(C2CN(C(=O)[C@@H]3C[C@H]3c3ccc(SC(F)(F)F)cc3)C2)CC1 (racemic) [Cpd 645, 1-(1,3-Thiazol-4-ylcarbonyl)-4-(1-{[(1RS,2RS)-2-{4-[(trifluoromethyl)sulfanyl]phenyl}cyclopropyl]carbonyl}azetidin-3-yl)piperazine]"
19,3.33 nM,O=C(c1ccc(-c2ccccc2)cc1)N1CC(N2CCN(C(=O)c3nccs3)CC2c2ccccc2)C1 (stereo not shown) [Cpd 114]
20,30300 nM,O=C(c1cncc(-c2ccccc2)c1)N1CC(N2CCN(C(=O)c3cscn3)CC2)C1 [Cpd 169]
21,1110 nM,O=C(c1ccc(CSc2cccc(Cl)c2)cc1)N1CC(N2CCN(C(=O)C(F)(F)F)CC2)C1 [Cpd 955]
22,571 nM,"N#Cc1ccc(-c2ccc(C(=O)N3CC(N4CCN(C(=O)c5ccccc5)CC4)C3)cc2)cc1 [Cpd 82, 4′-({3-[4-(Phenylcarbonyl)piperazin-1-yl]azetidin-1-yl}carbonyl)biphenyl-4-carbonitrile]"
23,80 nM,"Cc1nc(-c2cccc(C(F)(F)F)c2)sc1C(=O)N1CC(N2CCN(C(=O)c3ccccc3)CC2)C1 [Cpd 618, 1-[1-({4-Methyl-2-[3-(trifluoromethyl)phenyl]-1,3-thiazol-5-yl}carbonyl)azetidin-3-yl]-4-(phenylcarbonyl)piperazine]"
24,> 31200 nM,"O=C(c1ccccc1)N1CCN(C2CN(C(=O)c3nc(-c4ccccc4)oc3C(F)(F)F)C2)CC1 [Cpd 625, 1-(Phenylcarbonyl)-4-(1-{[2-phenyl-5-(trifluoromethyl)-1,3-oxazol-4-yl]carbonyl}azetidin-3-yl)piperazine]"
25,> 76700 nM,O=C(c1ccccc1)N1CCN(C2CN(C(=O)C3CCC(C(F)(F)F)CC3)C2)CC1 (stereo not shown) [Cpd 502]
26,1000 nM,"Cc1oc(-c2ccccc2)cc1C(=O)N1CC(N2CCN(C(=O)c3ccccc3)CC2)C1 [Cpd 623, 1-{1-[(2-Methyl-5-phenylfuran-3-yl)carbonyl]azetidin-3-yl}-4-(phenylcarbonyl)piperazine]"

# Same assay, conditions: ThermoFluor thermal stability binding assay, read-out: MGL mutant ThermoFluor Kd
row,Kd,Structure (SMILES)
1,200 nM,O=C(c1nccs1)N1CCN(C2CN(C(=O)c3cccc4nc(Cc5ccc(Cl)cc5)[nH]c34)C2)CC1 [Cpd 991]
2,94.1 nM,"O=C(c1ccccc1)N1CCN(C2CN(C(=O)c3ccc4nc(-c5cccc(C(F)(F)F)c5)oc4c3)C2)CC1 [Cpd 131, 6-({3-[4-(Phenylcarbonyl)piperazin-1-yl]azetidin-1-yl}carbonyl)-2-[3-(trifluoromethyl)phenyl]-1,3-benzoxazole]"
3,400 nM,O=C(c1ccccc1)N1CCN(C2CN(C(=O)c3ccc(OCc4cccc(Br)n4)cc3)C2)CC1 [Cpd 552]
4,1690 nM,O=C(c1cscn1)N1CCN(C2CN(C(=O)c3nc(-c4ccccc4)oc3C(F)(F)F)C2)CC1 [Cpd 1403]
5,90.9 nM,O=C(c1ccccc1)N1CCN(C2CN(C(=O)c3ccc(OCc4cccc(OC(F)(F)F)c4)cc3)C2)CC1 [Cpd 393]
6,10 nM,"COc1cc(C(=O)N2CC(N3CCN(C(=O)c4ccccc4)CC3)C2)ccc1-c1cccc(C(F)(F)F)c1 [Cpd 249, 1-(1-{[2-Methoxy-3′-(trifluoromethyl)biphenyl-4-yl]carbonyl}azetidin-3-yl)-4-(phenylcarbonyl)piperazine]"
7,40.8 nM,O=C(c1ccccc1)N1CCN(C2CN(C(=O)c3ccc(OCc4ccc(Cl)c(Cl)c4)c(Cl)c3)C2)CC1 [Cpd 399]
8,182 nM,O=C(c1ccc(-c2ccccc2)cc1)N1CC(N2CCN(C(=O)C3CCCC3)CC2)C1 [Cpd 1398]
